Biological target: T1, TLR8 (Homo sapiens, UniProt Q9NR97)
T1 construct: hTLR8, residues 27-827; made in house
T1 sequence (Q9NR97 27-827): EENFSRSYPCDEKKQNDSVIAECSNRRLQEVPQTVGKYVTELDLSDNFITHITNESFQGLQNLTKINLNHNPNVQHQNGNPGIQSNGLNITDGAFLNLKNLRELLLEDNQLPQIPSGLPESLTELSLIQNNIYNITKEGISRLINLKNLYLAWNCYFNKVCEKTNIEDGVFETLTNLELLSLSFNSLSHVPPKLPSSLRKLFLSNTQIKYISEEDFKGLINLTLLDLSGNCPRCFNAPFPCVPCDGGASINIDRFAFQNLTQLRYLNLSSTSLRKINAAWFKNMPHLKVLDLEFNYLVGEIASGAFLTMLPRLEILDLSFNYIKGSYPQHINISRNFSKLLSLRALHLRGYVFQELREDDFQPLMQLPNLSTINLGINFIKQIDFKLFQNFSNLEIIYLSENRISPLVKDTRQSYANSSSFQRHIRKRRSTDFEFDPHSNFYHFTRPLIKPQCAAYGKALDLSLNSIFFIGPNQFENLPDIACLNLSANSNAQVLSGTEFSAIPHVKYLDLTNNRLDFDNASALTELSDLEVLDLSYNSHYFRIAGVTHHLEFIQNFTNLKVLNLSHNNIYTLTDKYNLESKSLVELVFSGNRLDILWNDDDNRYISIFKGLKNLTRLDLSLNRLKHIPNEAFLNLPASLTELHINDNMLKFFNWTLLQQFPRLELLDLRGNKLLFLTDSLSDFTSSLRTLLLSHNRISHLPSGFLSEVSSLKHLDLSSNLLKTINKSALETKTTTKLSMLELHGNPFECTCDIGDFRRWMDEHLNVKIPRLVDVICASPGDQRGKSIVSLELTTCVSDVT
Test: Gel filtration chromatography of TLR8 dimerization
Format: binding
Settings: diluted TLR8, dose-dependent
Protocol: Gel filtration chromatography with diluted TLR8 proteins, in which TLR8 exists as a monomer, was conducted to determine the dimerization state of TLR8 in the absence and presence of different ligands (FIGS. 10A and 10B).

retention volume of TLR8 (dimer stabilization in solution): smaller retention volume
SMILES: Cc1cc(-c2ccnc3cc(O)ccc23)ccc1O [Compound 11b, 2-Methyl-4-(7-hydroxyl-4-quinolinyl)-phenol]

— patent publication US11466010B2, “Toll-like receptor 8 (TLR8) specific antagonists and methods of making and uses thereof” (The Regents of the University of Colorado, a body corporate, priority 2017, dated 2022)
